According to patent US12685725B2, “Pridopidine for the treatment of mitochondrial-associated diseases and disorders and endoplasmic reticulum (ER) stress” (PRILENIA NEUROTHERAPEUTICS LTD., priority 2019, dated 2026):

Key:
[1] = molecular target: S1R in STHdh^Q7/7 cells (Mus musculus, UniProt O55242); settings: 20 h; P (150 μM vs. 0)<0.05
Procedure: (§1) Transfections of HEK 293 cells were carried out according to the calcium phosphate method. STHdh^Q7/7 cells are a murine striatal cell line with a stable knock-in of the full-length wild type (WT) human Htt containing a polyglutamine stretch of 7 glutamines (Trettel et al. 2000). […] No cell line used is listed as a commonly misidentified cell line. Cell lines were not authenticated. To reduce any risk of cross-contamination they were grown for a limited number of passages. Transient transfections of NIH 3T3 and STHdh^Q7/7 cells were performed using an MP-100 Microporator (Digital Bio) or ViaFect™ Transfection Reagent (Cat.No. E4981) (Promega), according to the manufacturer's protocols.
(§2) Cells were lysed in PBS containing 1% Triton X-100, 0.5% sodium deoxycholate with protease inhibitors and centrifuged to pellet insoluble aggregates, debris and nuclei. Phosphatase inhibitor cocktail 2 and 3 and 10 mM […] phosphate were added to the lysis buffer to inhibit phosphatases for detection of phosphorylated proteins. Supernatants were separated from pellets and incubated in loading buffer for 5 min at 100° C., pellets were incubated for 10 min at 100° C. After SDS-PAGE and transfer to nitrocellulose membrane, blocking was done in 5% low-fat milk and 0.1% Tween-20 in PBS for 1 h. Incubation with the primary antibody was overnight at 4° C. and after three washes in 0.1% Tween-20 in PBS, incubation with the appropriate secondary antibody was for 1 h at room temperature. After washing, enhanced chemiluminescence assay was performed and the membrane was exposed and quantified in a Bio-Rad ChemiDocXRS Imaging System (Bio-Rad, Hercules, CA).
(§3) Briefly, cells grown for 24 h after transfection on coverslips in 24-well plates were fixed with 3% paraformaldehyde, followed by blocking with 50 mM glycine in PBS and normal goat IgG in PBS/2% BSA. The cells were incubated with primary antibodies for 1 h, washed and incubated for 30 min with secondary antibodies, followed by washes. Nuclei were stained with 4′,6-diamidino-2-phenylindole (Cat.No. F6057) (Sigma). Confocal microscopy was done on a Zeiss laser scanning confocal microscope (LSM 510; Carl Zeiss, Jena, Germany) as described previously. ImageJ was used to quantify fluorescence intensity in images of treated individual cells compared to untreated cells with and without Htt96Q-mCherry aggregates and to calculate Mander's coefficients for colocalization studies.

[2] = test system: S1R in STHdh^Q7/7 cells
Procedure: as §1, §2, §3

[3] = test system: HD human lymphoblasts; settings: pridopidine 24 h prior to H2O2 6 h, p=0.0016
Procedure: Cell viability was assessed on lymphoblasts using the MTS assay, a measure of mitochondrial function and cell survival. The assay was performed according to the manufacturer's instructions (Promega, catalog no. G1112). In the day of experiment, MTS reagent was added to the culture media (1:10) and incubated at 37° C. for 4 hours. Then, lymphoblasts were centrifuged at 145×g for 5 min and media was collected. The absorbance of the formazan dye produced by viable cells was quantified in the medium at OD=490 nm.

[4] = test system: S1R-silenced HD lymphoblasts; settings: 5 μM, 24 h
Procedure: S1R depletion was induced by treating with S1R-directed siRNA duplexes (Origene, cat no: SR426072). siRNA transfection was performed in antibiotic-free growth medium using the Polyplus JETPRIME transfection protocol as per manufacturer's instructions (Polyplus). Forty-eight hours after transfection the cells were subjected to pridopidine treatment and/or oxidative stress challenge. S1R knockdown efficiency was determined by Immunoblot analysis.
TMRE assay: Primary neurons and lymphoblasts in suspension were cultured in 6-well plates.

[5] = test system: isolated YAC128 striatal mitochondria; settings: wild-type mice, 30 mg/kg/day oral gavage 45 days
Procedure: In isolated mitochondria, H2O2 levels were measured using the Amplex Red-horseradish peroxidase method. […] The homogenate was then dispensed into a 96-multiwell plate and fluorescence was measured in a spectrofluorometer microplate reader by excitation at 570 nm and emission at 585 nm every 30 s, for 20 min. After 10 min of basal reading, mitochondria were challenged with antimycin A (2 μM). Results were analyzed as time-dependent changes in fluorescence.
1.5-month-old WT and hemizygous YAC128 mice (males and females in equal proportion) were divided into four groups. […] Mice were divided 4 animals per cage enriched in corn-husk nesting material and paper rolls, each cage representing one individual experiment, for a total of 9 animals per group. Pridopidine was dissolved in deionized sterile water. Animals were weighed every week and the volume of treatment adjusted accordingly. Mice were behaviorally tested in rotarod immediately before commencing treatment and on the day before finishing treatment. Tests were conducted blindly at a set time during the day. Mice were sacrificed 24 h after administration of the final pridopidine dose, and mitochondria isolated from the striatum.
The final homogenate was then centrifuged at 1,100×g for 2 min, at 4° C. […] Protein content of isolated mitochondria was quantified by Bio-Rad assay (Bio-Rad, catalog no. 5000006).

[6] = test system: HD-NSCs; assay: cells; settings: Homo sapiens, 24 h, read-out: reduction of the increase in H2O2 levels induced by complex III inhibition
Procedure: NSCs were plated at 30,000 cells/well in 96-well assay plates coated with Geltex® for 24 h at 37° C. Afterwards, NSCs were incubated for another 24 h with 1 μM pridopidine. […] MitoPY1 fluorescence was obtained with a Microplate Spectrofluorometer Gemini EM (Molecular Devices, USA) using wavelength parameters described above. Basal levels were measured for 10-15 minutes followed by exposure to 3 μM myxothiazol (mitochondrial complex III inhibitor. Sigma-Aldrich, catalog no: T5580) and measured for an additional 30 minutes. The results were calculated as RFU per 30,000 cells.

Sequence of S1R in STHdh^Q7/7 cells (Mus musculus, UniProt O55242) (O55242 whole entry): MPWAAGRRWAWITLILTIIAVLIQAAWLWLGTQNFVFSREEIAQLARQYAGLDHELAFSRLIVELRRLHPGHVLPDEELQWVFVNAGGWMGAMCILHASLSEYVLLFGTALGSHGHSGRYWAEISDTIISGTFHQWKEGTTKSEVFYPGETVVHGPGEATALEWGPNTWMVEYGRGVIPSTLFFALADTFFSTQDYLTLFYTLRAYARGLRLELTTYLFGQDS

With `CCCN1CCC(c2cccc(S(C)(=O)=O)c2)CC1` [Pridopidine, 4-[3-(methylsulfonyl)phenyl]-1-propyl-piperidine] the “Triton-insoluble levels of endogenous S1R” value [1] was “also those of the endogenous S1R”, the “Triton-insoluble levels of S1R-YFP” value ([2]; 20 h, starting 4 h post-transfection) was “increases the Triton-insoluble levels of S1R-YFP” and the “increase of S1R-YFP levels above the levels in the untreated cells” value ([2]; in the presence of Htt96Q-mCherry, dose-dependent, up to 150 μM, 20 h) was “up to 47%”. For the same compound, the “pattern (subcellular localization) of S1R-YFP” value ([2]; treatment for 20 h) was “does not change the pattern of S1R-YFP”, the “increase in cell viability” value [3] was “approximately 50%” and the “mitochondrial membrane potential signal after H2O2 stimulation” value ([4]; S1R+/+ cells) was “increases TMRM signal after H2O2 stimulation”. For the same compound, the “effect on mitochondrial membrane potential” value ([4]; absence of the S1R (silenced ~83%), p<0.0001) was “abolished”, the “mitochondrial H2O2 levels” value [5] was “does not affect” and the inhibition at 1 µM [6] was roughly 42%.
